Measured values reported in US20240109917A1 (ACTELION PHARMACEUTICALS LTD, priority 2020, published 2024).

These compounds were tested against His6-TEV-PDGFRβ (557-1016) (Homo sapiens (Human), UniProt P09619) (assay: PDGFRβ HTRF Assay). Settings: read-out: PDGFR HTRF IC50.
Format: biochemical
Method in brief: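 HTRF KinEASE-TK readout (665/620 nm ratio) of TK-biotin substrate phosphorylation by His-tagged PDGFRβ kinase domain. Enzyme and inhibitor preincubated 30 min, then ATP/substrate added for 3 h at room temperature before 60 min EDTA quench/detection.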

His6-TEV-PDGFRβ (557-1016), sequence (P09619 557-1016): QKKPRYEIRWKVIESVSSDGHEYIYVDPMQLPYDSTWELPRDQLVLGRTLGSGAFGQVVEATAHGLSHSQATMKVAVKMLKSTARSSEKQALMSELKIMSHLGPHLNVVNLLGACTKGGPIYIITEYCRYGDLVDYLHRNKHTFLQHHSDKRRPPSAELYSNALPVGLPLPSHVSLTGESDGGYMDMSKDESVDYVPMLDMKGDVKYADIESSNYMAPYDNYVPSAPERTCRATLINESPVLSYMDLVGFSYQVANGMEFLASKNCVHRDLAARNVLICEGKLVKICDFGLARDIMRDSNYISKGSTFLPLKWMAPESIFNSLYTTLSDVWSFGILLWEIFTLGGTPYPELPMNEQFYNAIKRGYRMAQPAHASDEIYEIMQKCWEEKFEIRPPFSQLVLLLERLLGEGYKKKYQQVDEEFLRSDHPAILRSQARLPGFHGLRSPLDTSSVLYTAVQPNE

Compound | IC50 [nM]
Cc1ncc(C(=O)NCCN2CCC23CCC3)cc1NC(=O)c1cnn2cc(-c3cnn(C)c3C)sc12 [Example 169, N-(5-((2-(1-azaspiro[3.3]heptan-1-yl)ethyl)carbamoyl)-2-methylpyridin-3-yl)-2-(1,5-dimethyl-1H-pyrazol-4-yl)pyrazolo[5,1-b]thiazole-7-carboxamide] | 0.3
Cc1ncc(C(=O)NCCN2CCC3(CC3)C2)cc1NC(=O)c1cnn2cc(-c3cnn(C)c3C)sc12 [Example 170, N-(5-((2-(5-azaspiro[2.4]heptan-5-yl)ethyl)carbamoyl)-2-methylpyridin-3-yl)-2-(1,5-dimethyl-1H-pyrazol-4-yl)pyrazolo[5,1-b]thiazole-7-carboxamide] | 0.3
Cc1ncc(C(=O)NCCN2CC3CCC2CC3)cc1NC(=O)c1cnn2cc(-c3cnn(C)c3C)sc12 [Example 171, N-(5-((2-(2-azabicyclo[2.2.2]octan-2-yl)ethyl)carbamoyl)-2-methylpyridin-3-yl)-2-(1,5-dimethyl-1H-pyrazol-4-yl)pyrazolo[5,1-b]thiazole-7-carboxamide] | 0.3
Cc1ncc(C(=O)NCCN2C3CCC2CC3)cc1NC(=O)c1cnn2cc(-c3cnn(C)c3C)sc12 [Example 172, N-(5-((2-(7-azabicyclo[2.2.1]heptan-7-yl)ethyl)carbamoyl)-2-methylpyridin-3-yl)-2-(1,5-dimethyl-1H-pyrazol-4-yl)pyrazolo[5,1-b]thiazole-7-carboxamide] | 0.3
Cc1ncc(C(=O)NCCN2CCCC2(C)C)cc1NC(=O)c1cnn2cc(-c3cnn(C)c3C)sc12 [Example 173, 2-(1,5-dimethyl-1H-pyrazol-4-yl)-N-(5-((2-(2,2-dimethylpyrrolidin-1-yl)ethyl)carbamoyl)-2-methylpyridin-3-yl)pyrazolo[5,1-b]thiazole-7-carboxamide] | 0.3
Cc1ncc(C(=O)NCCN2CCCC2(C)C)cc1NC(=O)c1cnn2cc(-c3cn(C)nc3C)sc12 [Example 174, 2-(1,3-dimethyl-1H-pyrazol-4-yl)-N-(5-((2-(2,2-dimethylpyrrolidin-1-yl)ethyl)carbamoyl)-2-methylpyridin-3-yl)pyrazolo[5,1-b]thiazole-7-carboxamide] | 0.3
Cc1ncc(C(=O)NCCN2CCC23CCC3)cc1NC(=O)c1cnn2cc(-c3cn(C)nc3C)sc12 [Example 175, N-(5-((2-(1-azaspiro[3.3]heptan-1-yl)ethyl)carbamoyl)-2-methylpyridin-3-yl)-2-(1,3-dimethyl-1H-pyrazol-4-yl)pyrazolo[5,1-b]thiazole-7-carboxamide] | 0.5
Cc1ncc(C(=O)NCCN2CCCC23COC3)cc1NC(=O)c1cnn2cc(-c3cn(C)nc3C)sc12 [Example 176, N-(5-((2-(2-oxa-5-azaspiro[3.4]octan-5-yl)ethyl)carbamoyl)-2-methylpyridin-3-yl)-2-(1,3-dimethyl-1H-pyrazol-4-yl)pyrazolo[5,1-b]thiazole-7-carboxamide] | 0.5
Cc1ncc(C(=O)NCCN2CCC3(CC3)C2)cc1NC(=O)c1cnn2cc(-c3cn(C)nc3C)sc12 [Example 177, N-(5-((2-(5-azaspiro[2.4]heptan-5-yl)ethyl)carbamoyl)-2-methylpyridin-3-yl)-2-(1,3-dimethyl-1H-pyrazol-4-yl)pyrazolo[5,1-b]thiazole-7-carboxamide] | 0.3
Cc1ncc(C(=O)NCCN2CC3CCC2CC3)cc1NC(=O)c1cnn2cc(-c3cn(C)nc3C)sc12 [Example 178, N-(5-((2-(2-azabicyclo[2.2.2]octan-2-yl)ethyl)carbamoyl)-2-methylpyridin-3-yl)-2-(1,3-dimethyl-1H-pyrazol-4-yl)pyrazolo[5,1-b]thiazole-7-carboxamide] | 0.2
Cc1ncc(C(=O)NCCN2CCCC23COC3)cc1NC(=O)c1cnn2cc(-c3c(C)nn(C)c3C)sc12 [Example 179, N-(5-((2-(2-oxa-5-azaspiro[3.4]octan-5-yl)ethyl)carbamoyl)-2-methylpyridin-3-yl)-2-(1,3,5-trimethyl-1H-pyrazol-4-yl)pyrazolo[5,1-b]thiazole-7-carboxamide] | 1
